Source: US8128963B2, “Methods for treating ischemic disorders using carbon monoxide” (The Trustees of Columbia University in the City Of New York, priority 1999, dated 2012)

Legend:
[1] = tested on: murine model of focal cerebral ischemia; assay: Murine focal cerebral ischemia, carbon monoxide inhalation and heme oxygenase blockade; type: in vivo, mouse; settings: for infarct volume / mortality: vs controls
Method: FIGS. 23A and 23B. FIG. 23A. The effect of carbon monoxide inhalation on cerebral infarct volumes. Mice were placed in bell jars, in which they were exposed to 0.1% CO for 12 hours. After this treatment, they were removed from the bell jars and subjected to intraluminal occlusion of the middle cerebral artery. At 24 hours, animals were sacrificed and infarct volumes measured by triphenyltetrazolium chloride (TTC) staining as shown in FIG. 25. Quantification of infarction volumes (mean±SEM) is expressed as the percent of infarction of the ipsilateral hemisphere.
Protoporphyrin preparation and administration. Tin protoporphyrin IX dichloride (20 mg, Porphyrin Products, Logan, Utah), zinc protoporphyrin IX (17 mg, Porphyrin Products, Logan, Utah), or biliverdin (18 mg, Porphyrin Products, Logan, Utah) was initially dissolved in dimethyl sulfoxide (2 mL). An aliquot of this solution (200 μL) was added to normal saline (9.8 mL) and this mixture was vortexed vigorously to yield a 2.7×10^−4 M solution of the protoporphyrin. The solution container was wrapped in aluminum foil to prevent photolysis of the protoporphyrin and stored at 4° C. until used.
Micro-osmotic pumps (#1003D, Alza Corp., Palo Alto, Calif.) were loaded with this protoporphyrin solution (91 μL/pump) and implanted subcutaneously in the anesthetized mouse via a 1 cm dorsal midline incision 24 h prior to the start of surgery. These pumps administer drug solution at a rate of 0.95±0.02. μL/h. At the time of surgery an additional dose of the protoporphyrin solution was administered (0.3 mL, i.v.) prior to insertion of the intralumenal occluding catheter. Each animal received the following total (injection+pump) drug amounts over the course of the study tin protoporphyrin (0.070 mg), zinc protoporphyrin (0.059 mg), or biliverdin (0.061 mg).

[2] = tested on: acute ischemic stroke; settings: cited from earlier work
[3] = tested on: lung ischemia (lung preservation for transplantation); assay: Rat orthotopic left lung transplantation after 6 h preservation, donor CO pretreatment; type: in vivo
Method: Inbred male Lewis rats (250-300 gms) were used for all experiments according to a protocol approved by the Institutional Animal Care and Use Committee at Columbia University, in accordance with guidelines set forth by the American Academy for Accreditation of Laboratory Animal Care (AAALAC). Lung transplant experiments were performed in the following manner. Donor rats were given 500 units of heparin intravenously, and the pulmonary artery (PA) was flushed with a 30 mL volume of 4° C. preservation solution at a constant pressure of 20 mm Hg. When lungs are preserved in this manner, most of the infused flush solution comes out of a left atrial vent created in the lung donor, as well as out of the pulmonary veins following transection.
The left lung was then harvested, a cuff was placed on each vascular stump, a cylinder was inserted into the bronchus, and the lung was submerged for 6 hours in 4° C. preservation solution which was identical to the PA flush solution. Gender/strain/size matched rats were anesthetized, intubated, and ventilated with 100% O2 using a rodent ventilator (Harvard Apparatus, South Natick, Mass.). Orthotopic left lung transplantation was performed through a left thoracotomy using a rapid cuff technique for all anastomoses, with warm ischemic times maintained below 5 minutes. The hilar cross-clamp was released, re-establishing blood flow and ventilation to the transplanted lung. A snare was then passed around the right PA, and Millar catheters (2F; Millar Instruments, Houston, Tex.) were introduced into the main PA and the left atrium (LA). A Doppler flow probe (Transonics, Ithaca, N.Y.) was placed around the main PA.
Online hemodynamic monitoring was accomplished using MacLab and a Macintosh IIci computer. Measured hemodynamic parameters included LA and PA pressures (mm Hg), and PA flow (mL/min). Arterial oxygen tension (pO2, mm Hg) was measured during inspiration of 100% O2 using a model ABL-2 gas analyzer (Radiometer, Copenhagen, Denmark). PVRs were calculated as (mean PA pressure—LA pressure)/mean PA flow and expressed as mm Hg/mL/min. After baseline measurements, the native right PA was ligated and serial measurements taken every five minutes until the time of euthanasia at 30 minutes (or until recipient death).
At the indicated time before surgery (4,8, or 12 hours), rats were placed in a bell jar, and carbon monoxide was administered at various concentrations (0.01%, 0.03%, or 0.1%), with the remainder of the gas mixture consisting of room air. (The gas was passed through a jar of water prior to administration, in order to humidify it for animal comfort). At the indicated times following initiation of exposure, rats were anesthetized and lungs harvested as described above. These donor lungs were used in subsequent lung transplant experiments.

[4] = tested on: Human umbilical vein ECs; assay: vWF release from hypoxic endothelial cells (ELISA); type: cell-based
Method: Endothelial cell culture and exposure of cells to H or H/R. Human umbilical vein ECs were prepared from umbilical cords and grown in culture by the method of Jaffe (16) as modified by Thornton (17). Experiments utilized confluent ECs (passages 1-4) grown in Medium 199 supplemented with fetal bovine serum (15%; Gemini, Calabasas, Calif.), human serum (5%; Gemini), endothelial growth supplement (Sigma, St. Louis, Mo.), heparin (90 μg/ml; Sigma) and antibiotics, as described (17). When ECs achieved confluence, experiments were performed by placing cultures in an environmental chamber (Coy Laboratory Products, Ann Arbor, Mich.) which provided a controlled temperature (37° C.) and atmosphere with the indicated amount of oxygen, carbon dioxide (5%) and the balance made up of nitrogen. Use of this chamber for cell culture experiments has been described previously (15,18). During exposure of ECs to hypoxia (for a maximum of 16 hours), the oxygen tension in the culture medium was 14-18 torr and there was no change in the medium pH. Reoxygenation was performed by placing ECs in an ambient atmosphere containing carbon dioxide (5%) at 37° C.
Measurement of Weibel-Palade body exocytosis: ECs were plated into 24 well plates, rinsed 3 times with Hank's balanced salt solution, and then exposed to hypoxia or to normoxia for the indicated durations. For experiments in which vWF was measured, cells were maintained in serum-free medium. All other EC experiments were performed in the EC growth medium described above. For measurement of vWF, 200 μL aliquots of culture supernatant was removed at the indicated times, and a commercially available ELISA (American Diagnostica, Greenwich, Conn.), based on a polyclonal goat anti-human vWF antibody, was performed on duplicate specimens, with a standard curve generated using purified human vWF antigen supplied by the same vendor. EC P-selectin expression was determined by measuring the specific binding of a murine monoclonal anti-human P-selectin antibody (WAPS 12.2 clone, Endogen, Cambridge, Mass.; this is an IgGl which recognizes a calcium sensitive epitope and blocks P-selectin dependent neutrophil adhesion. Antibody was radiolabelled with ^125I by the lactoperoxidase method (19) using Enzymobeads (Bio-Rad, Hercules, Calif.), stored at 4° C. and used within one week of labelling. Binding assays were performed on HUVECs plated on 96 well plates, in which fresh M199 with 0.1% bovine serum albumin (Sigma, St. Louis, Mo.) was added immediately prior to each experiment. Cells were placed in a humidified environment at 37° C., and exposed to normoxia or H (in the presence or absence of 50 μM probucol, as indicated, Sigma) for the indicated durations. Cell monolayers were fixed for 15 min. with 1% paraformaldehyde^10 (cells exposed to H were fixed while still within the hypoxic environment), visually inspected to ensure that the monolayers remained intact, and washed twice with HBSS containing 0.5% bovine serum albumin (HBSS/A). Monolayers were then exposed to 10^5 cpm of ^125I-labelled anti-P-selectin antibody (WAPS 12.2) in the presence of 200 μg/mL of either unlabelled blocking antibody (WAPS 12.2) or nonblocking anti-P-selectin IgG of the same isotype (anti-GMP-140, AC1.2 clone, Becton-Dickinson, San Jose, Calif.) (20,21). After binding for 1 hour at 37° C., monolayers were washed 4 times with HBSS/A, and bound antibody was eluted with 1% triton X-100 in PBS (200 μL/well) and counted. […]

[5] = tested on: hypoxic human umbillical vein ECs; assay: vWF release from hypoxic HUVECs, NO/cGMP pathway; type: cell-based; settings: hypoxia pO2<20 Torr 4 hours; SIN-1 0.1 mM, 8-Bromo-cGMP 10 nM
Method: (§1) Hypoxia or free radicals induce P-selectin (PS) translocation to the endothelial cell (EC) surface, where it participates in neutrophil (PMN) adhesion during reperfusion. To explore a mechanism whereby nitrovasodilators may attenuate postischemic leukosequestration, we tested whether stimulating the NO/cGMP pathway could attenuate surface PS expression in hypoxic human umbillical vein ECs. […] Under similar conditions, addition of the NO donor 3-morpholino sydnonimine (SIN-1, 0.1 mM) or the cGMP analog 8-Bromo-cGMP (cGMP, 10 nM) caused a reduction in vWF release; Control vWF, 11±0.4 mU/mL; SIN-1, 9.1±0.3 mU/mL; cGMP, 9.7±0.2 mU/mL; p<0.005 for both SIN-1 or cGMP vs Control.

[6] = tested on: hypoxic HUVECs; assay: Immunofluorescent adherence assay, HL60 binding to hypoxic HUVECs; type: cell-based, human
Method: as §1

[7] = tested on: P-selectin; assay: Surface P-selectin expression on hypoxic HUVECs (radiolabeled anti-PS antibody binding); type: cell-based, human
Method: as §1

[8] = CO-pretreated donor lungs vs untreated controls

C=CC1=C(C)c2cc3[n-]c(cc4[n-]c(cc5nc(cc1n2)C(C)=C5C=C)c(C)c4CCC(=O)O)c(CCC(=O)O)c3C.[Zn+2] [zinc protoporphyrin IX]
infarct volume ([1]; heme oxygenase blockade): increase | mortality ([1]; heme oxygenase blockade): increase

streptokinase
rate of hemorrhagic transformation ([2]; given in the first several (<6) hours following stroke onset): up to 67% | 6 month mortality ([2]; outside the therapeutic window): 73% | 10 day mortality ([2]; outside the therapeutic window): 34.0%

[C-]#[O+] [carbon monoxide]
level of protection ([3]; 0.01% dose): least protection | level of protection ([3]; 0.03% dose): intermediate level of protection | level of protection ([3]; 0.1% dose): best protection | survival of recipients ([3]; CO-pretreated donor lungs vs controls): Improved survival | arterial oxygenation of recipients [3, 8]: Improved arterial oxygenation | pulmonary arterial blood flow [3, 8]: Increased pulmonary arterial blood flow | pulmonary vascular resistance [3, 8]: reduced pulmonary vascular resistance | time dependence of protection ([3]; exposure 4, 8 or 12 hours before surgery): longer exposures appeared to provide the greatest protection | mortality at 24 hours ([1]; 0.1% CO inhaled for 12 hours before MCA occlusion): reduces mortality | cerebral infarct volume ([1]; 0.1% CO inhaled for 12 hours before MCA occlusion, 24 hours): reduces infarct volumes | inhaled CO dose providing optimal protection (infarct volume) ([1]; dose-response of inhaled CO): 0.1%

CC(C)(Sc1cc(C(C)(C)C)c(O)c(C(C)(C)C)c1)Sc1cc(C(C)(C)C)c(O)c(C(C)(C)C)c1 [probucol]
vWF levels following reoxygenation of hypoxic ECs ([4]; probucol 50 μM): blunt the further increase in vWF levels | effect on H-mediated exocytosis of Weibel-Palade bodies (vWF release) ([4]; probucol 50 μM added at onset of H): no effect | vWF in culture supernatant ([4]; probucol 50 μM added at onset of H, 6 hours of H): 4.7±0.31×10^−3 U/ml

C=CC1=C(C)C2=Cc3c(C=C)c(C)c4[n]3[Sn]([Cl])([Cl])[n]3c(c(C)c(CCC(=O)O)c3=CC3=NC(=C4)C(C)=C3CCC(=O)O)=CC1=N2 [tin protoporphyrin, Tin protoporphyrin IX dichloride]
infarct volume ([1]; heme oxygenase blockade): significantly larger infarct volumes | mortality ([1]; heme oxygenase blockade): increased mortality | neurological outcome ([1]; heme oxygenase blockade, vs untreated controls): worse neurological outcomes | local CO levels by direct measurement ([1]; osmotic pump from 24 h before surgery plus i.v. dose): reduced local CO levels

C=CC1=C(C)/C(=C/C2=NC(=C\c3[nH]c(/C=C4\NC(=O)C(C)=C4C=C)c(C)c3CCC(=O)O)/C(CCC(=O)O)=C2C)NC1=O [Biliverdin, biliverdin]
effect on stroke outcome (cerebral protection) ([1]; osmotic pump plus i.v. dose, total 0.061 mg): without effect

O=C(O)CN(CCOCCOCCN(CC(=O)O)CC(=O)O)CC(=O)O [EGTA, ethyleneglycol bis (aminoethylether) tetraacetic acid]
H-induced EC release of vWF ([4]; 0 mM Ca++ with 2 mM EGTA, 8 hrs): even more suppressive effect

N=c1c[n+](N2CCOCC2)[n-]o1 [SIN-1, 3-morpholino sydnonimine]
vWF release [5]: 9.1±0.3 mU/mL | decrease of HL60 binding to hypoxic HUVECs vs controls [6]: 53% | PS expression in calcium-free medium ([7]; ECs in calcium-free medium): Neither SIN-1 nor cGMP could further reduce PS expression | decrease of surface PS expression vs controls ([7]; hypoxia 4 hours, SIN-1 0.1 mM, 8-Bromo-cGMP 10 nM): 40%
